The results in this text go back to PubChem BioAssay (NCI).

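A five-concentration, 48-hour dose response in 96-well plates underlies each endpoint, interpolated linearly between surrounding concentrations. TGI marks complete inhibition of growth.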 Where a SMILES comes first, the peptide text is derived from it. The star is where a group is joined. Cbz = O=C(OCc1ccccc1)*

Some test systems named below: ACHN renal; DU-145 prostate; HCC-2998 colon; HS 578T breast; HT29 colon; NCI-H522 lung; NCI/ADR-RES ovarian; OVCAR-8 ovarian; SF-268 CNS; SK-MEL-2 melanoma; SK-MEL-28 melanoma; TK-10 renal; HCT-15 colon; M14 melanoma; NCI-H226 lung; SNB-75 CNS.
Holding throughout (assay): DTP human tumour cell line panel, 48 h

As usually defined, the TGI is the concentration giving total growth inhibition. Take `O=C(n1c(=O)n(-c2ccc(Cl)cc2)c(=O)n1C(=O)C(Cl)(Cl)Cl)C(Cl)(Cl)Cl`: the TGI in the test on ACHN renal, with DU-145 prostate, in the test with HCC-2998 colon, with HS 578T breast, in the test with HT29 colon and in the test with NCI-H522 lung was > 100 µM in each case. The TGI with NCI/ADR-RES ovarian, with OVCAR-8 ovarian, with SF-268 CNS, with SK-MEL-2 melanoma, with SK-MEL-28 melanoma and in the test with TK-10 renal was > 100 µM each time.
Regarding `COc1ccc2c(c1)N=C1CSC(c3c(Cl)cccc3[N+](=O)[O-])N1C2` (stereo not given), the TGI with ACHN renal was > 100 µM; in the test with HCC-2998 colon, 47.7 µM; in the test with HCT-15 colon, > 100 µM; in the test with HS 578T breast, > 100 µM; with HT29 colon, > 100 µM; in the test on M14 melanoma, > 100 µM. Moreover, the TGI in the test on NCI-H226 lung was 84.6 µM; with NCI-H522 lung, > 100 µM; in the test on NCI/ADR-RES ovarian, > 100 µM; in the test with OVCAR-8 ovarian, > 100 µM; with SF-268 CNS it was > 100 µM; in the test on SK-MEL-2 melanoma, > 100 µM. Further, the values for the TGI with SK-MEL-28 melanoma, with SNB-75 CNS and in the test with TK-10 renal were > 100 µM, 98.5 µM and > 100 µM, respectively.
On to `CCN(CC)CCC(=O)c1ccc(Oc2ccccc2)cc1`, for which the TGI with ACHN renal is 29.3 µM; in the test on DU-145 prostate, 71.2 µM; in the test with HCC-2998 colon, 35.6 µM; in the test with HCT-15 colon it was 35.6 µM; with HS 578T breast, 52.6 µM; in the test on HT29 colon it was 38.3 µM. The TGI is > 100 µM with M14 melanoma; > 100 µM in the test with NCI-H226 lung; 56.4 µM in the test with NCI/ADR-RES ovarian; > 100 µM in the test with OVCAR-8 ovarian; 55.9 µM in the test with SF-268 CNS; > 100 µM in the test with SK-MEL-2 melanoma. In addition, the figures for the TGI in the test on SK-MEL-28 melanoma, in the test on SNB-75 CNS and in the test with TK-10 renal were 32.5 µM, 52 µM and 27.5 µM, respectively.
As for `CCOC(=O)c1nc2ccccc2nc1Oc1ccc(OC)cc1`, the TGI with ACHN renal, in the test on DU-145 prostate, in the test with HCT-15 colon, in the test on HS 578T breast, in the test on HT29 colon and with M14 melanoma was > 100 µM in each case. Also, the TGI in the test on NCI-H226 lung, with NCI-H522 lung, with NCI/ADR-RES ovarian, in the test on OVCAR-8 ovarian, in the test with SF-268 CNS and with SK-MEL-2 melanoma was > 100 µM each time. Moreover, the TGI with SK-MEL-28 melanoma and in the test with TK-10 renal was > 100 µM in each case.
Regarding `CCOC(=O)C(CC(=O)OC)NC(=O)C(CC(=O)OC)NC(=O)C(CC(=O)OC)NC(=O)C(CC(=O)OC)NC(=O)OCc1ccccc1` (stereo not given) (Cbz-D(OMe)D(OMe)D(OMe)D(OMe)-OEt; configuration not given here), the TGI with ACHN renal, in the test with HCC-2998 colon, in the test on HCT-15 colon, in the test on HS 578T breast, in the test with HT29 colon and in the test with M14 melanoma was > 100 µM throughout. Also, the TGI in the test with NCI-H226 lung, in the test with OVCAR-8 ovarian, in the test on SK-MEL-2 melanoma, in the test on SK-MEL-28 melanoma, in the test on SNB-75 CNS and in the test on TK-10 renal was > 100 µM in each case.
As for `Nc1ncc(CN2CCOCC2)c(-c2ccccc2O)n1`, the TGI in the test with ACHN renal, in the test with DU-145 prostate, in the test with HCT-15 colon, with HS 578T breast, in the test on HT29 colon and in the test on M14 melanoma was > 100 µM throughout. The TGI in the test with NCI-H226 lung, with NCI/ADR-RES ovarian, in the test with OVCAR-8 ovarian, with SF-268 CNS, in the test on SK-MEL-2 melanoma and in the test on SK-MEL-28 melanoma was > 100 µM in each case. Also, the TGI in the test with SNB-75 CNS and with TK-10 renal was > 100 µM in each case.
With `COC(=O)CC1(O)C(/C=C/c2ccccc2)C(C(=O)OC)C(=O)C(C(=O)OC)C1C(=O)OC` (stereo not given), the TGI with ACHN renal, in the test on DU-145 prostate, in the test on HCC-2998 colon, in the test with HCT-15 colon, in the test on HS 578T breast and in the test on HT29 colon was > 100 µM throughout. Besides, the TGI with M14 melanoma, in the test on NCI-H226 lung, with NCI-H522 lung, with NCI/ADR-RES ovarian, with OVCAR-8 ovarian and in the test on SF-268 CNS was > 100 µM each time. In addition, the TGI in the test with SK-MEL-2 melanoma, with SK-MEL-28 melanoma and with TK-10 renal was > 100 µM throughout.
Take `[O-]c1c[n+](CC[n+]2cc([O-])on2)no1`: the TGI in the test on ACHN renal, in the test on DU-145 prostate, in the test on HCC-2998 colon, with HCT-15 colon, in the test with HS 578T breast and in the test on HT29 colon was > 100 µM each time. In addition, the TGI in the test with M14 melanoma, in the test on NCI-H522 lung, in the test on NCI/ADR-RES ovarian, with OVCAR-8 ovarian, with SF-268 CNS and with SK-MEL-2 melanoma was > 100 µM each time. For the same molecule, the TGI with SK-MEL-28 melanoma, in the test on SNB-75 CNS and in the test with TK-10 renal was > 100 µM in each case.
On to `CC(C)(C)c1cc(C(=O)/C=C/c2ccc3c(c2)CCO3)cc(C(C)(C)C)c1O`, for which the TGI was > 100 µM in the test with ACHN renal; 3.8 µM in the test with HCC-2998 colon; > 25.9 µM in the test on HCT-15 colon; > 29.5 µM with HS 578T breast; > 27.2 µM with HT29 colon; 5.25 µM in the test with M14 melanoma. The TGI in the test on NCI-H226 lung was > 28.4 µM; in the test with NCI-H522 lung, 2.16 µM; in the test with NCI/ADR-RES ovarian, 1.05 µM; in the test with OVCAR-8 ovarian, > 100 µM; in the test on SF-268 CNS, 24.5 µM; in the test on SK-MEL-2 melanoma, 13.1 µM. Besides, the TGI in the test on SK-MEL-28 melanoma is > 100 µM; in the test with TK-10 renal, > 25.9 µM.
In the case of `O=[N+]([O-])/C=C/COCc1cc2c(cc1Br)OCO2`, the TGI with ACHN renal stood at 30 µM; with DU-145 prostate it was 35.5 µM; with HCC-2998 colon it was 34.2 µM; in the test on HCT-15 colon it was 34.3 µM; with HS 578T breast, 50.3 µM; in the test with HT29 colon it was 45.4 µM. For the same molecule, the TGI was 29.9 µM in the test with M14 melanoma; 50.7 µM in the test with NCI-H522 lung; 41.6 µM in the test on NCI/ADR-RES ovarian; > 100 µM in the test on OVCAR-8 ovarian; 41.4 µM with SF-268 CNS; 25.4 µM in the test with SK-MEL-28 melanoma. In addition, the TGI in the test on SNB-75 CNS was determined as 31.7 µM; in the test with TK-10 renal it was 34.8 µM.
